From patent US7989466B2, “Methods to inhibit or augment an inflammatory response” (Cambridge Enterprise Limited, priority 1999, dated 2011)
Where two headings read alike, the source gives them in different places. No end group written: not given here.

Columns and labels:
CCR-2 = CCR-2 (Homo sapiens, UniProt P41597); assay: Competitive binding to CCR-2 on CHO cells; details: read-out: ED50, Binding to CCR-2
Description: A competitive binding assay was used to determine the binding of A-I to chemokine receptors. These experiments were performed under ‘Horuk’ conditions (Hesselgesser et al., J. Biol. Chem., 273, 15687 (1998)), except that CHO cells expressing CCR-2 or CXCR-2 (AIDS Reagent Program, MRC London) were used. In each case, the specific binding of 0.25 nM labeled ligand to the cells was determined as the counts bound which were competable by 100 nM cold ligand. In each experiment, A-I was added from a stock solution in DMSO (with <0.1% DMSO final concentration in the assay).

[1] = tested on: MCP-1 induced human monocyte migration; assay: Human monocyte migration, MCP-1; format: cell-based; details: n.s. = no statistically significant inhibition
Description: (§1) Agents may also be screened in a chemotactic assay which employs human neutrophils, eosinophils, mast cells, basophils, platelets, lymphocytes or monocytes. For monocytes, 9 mls of fresh blood are transferred to a tube containing 1 ml of 3.8% sodium citrate, and left at room temperature for 15 minutes. Five mls of this anti-coagulated blood are carefully layered over 3.5 ml Polymorphprep® (Nycomed Pharma, Oslo), and centrifuged at 500 g for 35 minutes per the manufacturer's instructions. The top band at the sample/medium interface contains monocytes. The monocytes are carefully removed with a glass pipette, and reconstituted to the original volume (5 ml). The cells are washed with PBS plus 10% fetal calf serum, and centrifuged at 400 g for 10 minutes. The washing step is repeated three times before the cells are counted. Cells are resuspended at 1×10^7 cells/ml in RPMI-1640+10% fetal calf serum (FCS). The monocytes are cultured for two days at 37° C. in a humidified atmosphere of 5% CO2.
On day 2, the cells are counted, spun down, and reconstituted to 1×10^7 cells/ml in Gey's balanced salt solution+1 mg/ml bovine serum albumin (BSA). Chemotaxis is induced in a 48 or 96-well disposable chemotaxis chamber fitted with a 5-8 μm polycarbonate filter for monocytes, neutrophils or eosinophils, or a 3 μm filter for lymphocytes (Uguccioni et al, Eur. J. Immunol., 25, 64 (1995); Loetscher et al., J. Exy. Med., 184, 569 (1996); Weber et al., J. Immunol., 4166 (1995)) (PVP free, ChemoTX, Neuroprobe Inc., Cabin John, Md.). Twenty-nine μl of chemoattractant or control are added to the lower compartment of each well. The framed filter is aligned with the holes in the corner of the filter frame and placed over the wells. Two and one-half×10^5 monocytes in 25 μl of Gey's balanced salt solution+1 mg/ml BSA are added to the upper compartment. The agent is dissolved in MilliQ water and then serially diluted in the Gey's balanced salt solution. In most cases, the serially diluted agent is added to the upper compartment of the chemotaxis chamber. […]

[2] = tested on: SDF-1α induced human monocyte migration; assay: Human monocyte migration, SDF-1α; format: cell-based; details: n.s. = no statistically significant inhibition
Description: as §1
(§2) On day 2, the cells are counted, spun down, and reconstituted to 1×10^7 cells/ml in Gey's balanced salt solution+1 mg/ml bovine serum albumin (BSA). […]

[3] = tested on: MIP1α induced human monocyte migration; assay: Human monocyte migration, MIP1α; format: cell-based; details: n.s. = no statistically significant inhibition
Description: as §1, §2

HIV (IIIb), T-tropic = details: 100 μM peptide; for effect on HIV infection / replication in Jurkat cells, in words: reverse transcriptase assay; for inhibition of reverse transcriptase activity: Jurkat cells, HIV IIIb

CCR-2, sequence (P41597 1-313 limits assumed): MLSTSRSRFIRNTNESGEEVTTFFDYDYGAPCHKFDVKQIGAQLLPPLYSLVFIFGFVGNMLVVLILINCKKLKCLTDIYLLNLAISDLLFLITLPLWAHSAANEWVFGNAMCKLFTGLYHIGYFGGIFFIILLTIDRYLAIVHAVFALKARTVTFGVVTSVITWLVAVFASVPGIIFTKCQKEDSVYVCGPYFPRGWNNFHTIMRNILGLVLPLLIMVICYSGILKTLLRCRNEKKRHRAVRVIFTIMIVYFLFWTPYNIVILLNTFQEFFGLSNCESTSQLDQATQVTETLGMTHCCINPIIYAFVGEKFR

Molecule	EC50 (CCR-2) [nM]	% inhibition at 100 μM versus MCP-1, human monocyte migration [1] [%]	% inhibition at 100 μM versus SDF-1α, human monocyte migration [2]	% inhibition at 100 μM versus MIP1α, human monocyte migration [3]	effect on HIV infection / replication in Jurkat cells, in words (HIV (IIIb), T-tropic; listed as Peptide 3(1-12)[MCP-1])	effect on HIV infection / replication in Jurkat cells, in words (HIV (IIIb), T-tropic; listed as peptide 3)	% inhibition at 100 μM versus MCP-1, human monocyte migration ([1]; listed as Peptide 2 (SEQ ID NO: 3)) [%]	inhibition of reverse transcriptase activity (HIV (IIIb), T-tropic) [%]	inhibition of reverse transcriptase activity (HIV (IIIb), T-tropic; listed as Peptide 2) [%]	inhibition of reverse transcriptase activity (HIV (IIIb), T-tropic; listed as peptide 2) [%]	effect on HIV infection / replication in Jurkat cells, in words (HIV (IIIb), T-tropic)
C=CCCCCCCCCC(=O)N[C@H]1CCC(=O)NC1=O [A-I (NR58.4), [3S]-3-(undec-10-enoylamino)piperidine-2,6-dione]	5										
EICADPKQKWVQ [peptide 3(1-12)[MCP-1]]		108	108%	120%	effective inhibitor of Jurkat cell infection by HIV	but not peptide 3 (100 μM) markedly inhibited virus replication					
SYRRITSSKCPKEAV [peptide 2(1-15)[MCP-1]]		20	n.s.	n.s.			23	75±10	75	75	more effective than peptide 3(1-12)[MCP-1] (SEQ ID NO:1), and as effective as SDF1α
